Here are results for 1 molecule from EPA's ToxValDB 9.5 (doi:10.2903/j.efsa.2017.4718).

One data set concerns Anatidae. Particulars: not reported; oral; feed; no effects.
The next data set deals with Felidae. Conditions: short-term; duration: 14 days; oral; diet; Cat; body weight.
The test system of the next data set is Cyprinus carpio. Particulars: subchronic; duration: 6 weeks; oral; feed; histopathology: nonneoplastic.
In a further data set the test system is Sus scrofa. Particulars: subchronic; duration: 3 months; oral; diet; Not specified; food consumption.
The test system of another data set is Canidae. Particulars: short-term; duration: 14 days; oral; diet; Dog Other; body weight.
Another data set concerns Neovison vison. Conditions: short-term; duration: 28 days; oral; diet; F; food consumption.
In the next data set the test system is Oryctolagus sp. Conditions: short-term; duration: 21 days; oral; diet; M; no effects.
The test system of a further data set is Meleagris sp. Conditions: subchronic; duration: 12 weeks; oral; feed; M; no effects.
Another data set deals with Equus caballus. Particulars: subchronic; duration: 40 days; no effects.
A further data set has as its system Gallus gallus. Conditions: subchronic; duration: 5 weeks; oral; diet; M; Chicken; no effects.
A further data set relates to Ovis sp. Conditions: short-term; duration: 28 days; oral; diet; food consumption.

As for `CC1=C[C@H]2O[C@@H]3[C@H](O)C[C@](C)([C@@]2(CO)[C@H](O)C1=O)[C@@]31CO1` [Vomitoxin], the NOAEL in the data set on Bovidae (chronic, duration: 126 days, oral, diet, food consumption) is 10 mg/kg-day; in the data set on Bovidae (chronic, duration: 166 days, oral, diet, food consumption) it was 18 mg/kg-day; in the data set with Bovidae (subchronic, duration: 13 weeks, F, no effects), 5.24 mg/kg-day; with Anatidae, 7 mg/kg; in the data set on Felidae, 6 mg/kg-day; with Cyprinus carpio it was 0.6 mg/kg. In addition, the no observed adverse effect level (NOAEL) in the data set on Sus scrofa came to 0.7 mg/kg-day; in the data set with Canidae it was 4 mg/kg-day; in the data set on Neovison vison, 1.18 mg/kg-day; in the data set with Oryctolagus sp., 4.3 mg/kg-day; in the data set on Meleagris sp. it was 6.5 mg/kg; in the data set with Equus caballus, 36 mg/kg. Further, the NOAEL came to 5 mg/kg-day with Gallus gallus; 16 mg/kg-day with Ovis sp.; 0.1 mg/kg-day with Mus musculus (chronic, duration: 2 years, oral, diet, M/F, B6C3F1, food consumption); 0.5 mg/kg-day in the data set with Mus musculus (developmental, development); 0.38 mg/kg-day in the data set on Mus musculus (reproduction developmental, oral, diet, M/F, reproduction); 0.1 mg/kg-day in the data set on Mus musculus (short-term, duration: 14 days, oral, diet, M/F, BALB/cAnCr, hematological). The LEL with Mus musculus (chronic, duration: 2 years, immunology) was not below 0.0016 mg/kg-day.

For orientation: NOAEL means the highest tested level that showed no adverse finding.
